The values below are quoted from earlier work in patent US20090142391A1, “Conjugated RNAi Therapeutics” (priority 2007, published 2009).

For this data set the following is noted: in the blood.

For `C=CC[C@@H]1/C=C(\C)C[C@H](C)C[C@H](OC)[C@H]2O[C@@](O)(C(=O)C(=O)N3CCCC[C@H]3C(=O)O[C@H](/C(C)=C/[C@@H]3CC[C@@H](O)[C@H](OC)C3)[C@H](C)[C@@H](O)CC1=O)[C@H](C)C[C@@H]2OC` [FK506], the “distribution into protected cellular compartments” value is 72-98%.
